US4478826A, “Renin inhibitory peptides” (Merck & Co., Inc., priority 1982, dated 1984)
Square brackets hold non-standard residues; d marks the D form. Peptide text beside a SMILES is read from it. * marks the point of attachment. Sta = CC(C)C[C@H](N)[C@@H](O)CC(=O)O; Isobutyryl = CC(C)C(=O)*

Target: T1, human renin (Homo sapiens, UniProt P00797)
T1 construct: Human plasma (lyophilized) was used as the source of human substrate and human renin; from tissue; host or cells: human plasma (lyophilized)
T1 sequence (P00797 67-406): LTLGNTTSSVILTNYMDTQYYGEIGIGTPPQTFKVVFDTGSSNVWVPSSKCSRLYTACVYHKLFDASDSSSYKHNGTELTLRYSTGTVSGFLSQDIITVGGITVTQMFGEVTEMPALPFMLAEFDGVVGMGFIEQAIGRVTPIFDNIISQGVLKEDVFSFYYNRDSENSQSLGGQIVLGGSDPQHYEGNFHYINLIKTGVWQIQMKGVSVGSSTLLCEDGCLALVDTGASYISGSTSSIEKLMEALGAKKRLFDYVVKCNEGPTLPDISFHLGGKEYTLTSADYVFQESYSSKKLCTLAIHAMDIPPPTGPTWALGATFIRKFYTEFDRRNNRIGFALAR
Assay: Human renin assay (radioimmunoassay of angiotensin I, human plasma)
Type: biochemical
Settings: human plasma (lyophilized) as source of human substrate and human renin; read-out: I50 (M) Human renin
Description: This method employs a radioimmunoassay technique to measure the amount of angiotensin I product of renin cleavage of its substrate. Human plasma (lyophilized) was used as the source of human substrate and human renin. I50 values were obtained by plotting data at several inhibitor concentrations.

- IC50: 4.2e-08 M
Structure (SMILES): CC(C)C[C@H](NC(=O)[C@H](Cc1c[nH]cn1)NC(=O)[C@H](Cc1ccccc1)NC(=O)[C@@H]1CCCN1C(=O)[C@H](Cc1c[nH]cn1)NC(=O)C(C)C)[C@@H](O)CC(=O)N[C@@H](C)C(=O)N[C@@H](Cc1ccccc1)C(N)=O [IBU--His--Pro--Phe--His--Sta--Ala--Phe--NH2] (Isobutyryl-HPFH[Sta]AF-NH2)
